Consider eight compounds from ChEMBL document CHEMBL1125196, “Design and synthesis of P2-P1'-linked macrocyclic human renin inhibitors” (J Med Chem, 1991).

This assay deals with T1, Renin (Homo sapiens, UniProt P00797).
T1 sequence (P00797 whole entry): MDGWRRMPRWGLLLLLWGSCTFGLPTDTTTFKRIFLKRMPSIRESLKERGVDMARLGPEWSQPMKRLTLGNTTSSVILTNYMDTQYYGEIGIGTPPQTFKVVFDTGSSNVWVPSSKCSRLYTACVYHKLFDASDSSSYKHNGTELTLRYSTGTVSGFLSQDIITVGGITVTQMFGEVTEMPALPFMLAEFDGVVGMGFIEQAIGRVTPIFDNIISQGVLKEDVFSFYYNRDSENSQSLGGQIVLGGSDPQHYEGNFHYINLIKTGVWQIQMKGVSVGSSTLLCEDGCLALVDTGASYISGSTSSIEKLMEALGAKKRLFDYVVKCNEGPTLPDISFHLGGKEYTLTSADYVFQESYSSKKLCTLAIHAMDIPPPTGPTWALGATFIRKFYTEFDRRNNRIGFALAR
Description: The compound was evaluated in vitro for inhibition of human plasma renin at pH 7.4. In kind it is cell-free.

Usually IC50 stands for the point on the concentration scale where inhibition reaches its midpoint. On to `CC(C)(C)OC(=O)N[C@@H](Cc1ccccc1)C(=O)N[C@H]1CNC(=O)CCCOC(=O)[C@H](O)[C@H](CC2CCCCC2)NC1=O`, for which 9.2 µM corresponded to half-maximal inhibition (IC50). That is a single-digit micromolar value.
Under `CC(C)(C)OC(=O)N[C@@H](Cc1ccccc1)C(=O)N[C@H]1CCC(=O)NCCCOC(=O)[C@H](O)[C@H](CC2CCCCC2)NC1=O` stands 7 µM; under `CC(C)(C)OC(=O)N[C@@H](Cc1ccccc1)C(=O)N[C@H]1CCC(=O)NCCC[C@@H](O)[C@H](O)[C@H](CC2CCCCC2)NC1=O`, more than 20 µM; under `CC(C)(C)OC(=O)N[C@@H](Cc1ccccc1)C(=O)N[C@H]1CCC(=O)NCCCC2(OCCO2)[C@H](O)[C@H](CC2CCCCC2)NC1=O`, more than 20 µM.
Under `CC(C)(C)OC(=O)N[C@@H](Cc1ccccc1)C(=O)N[C@H]1CCC(=O)NCCOC(=O)[C@H](O)[C@H](CC2CCCCC2)NC1=O` stands 0.61 µM; under `CC(C)(C)OC(=O)N[C@@H](Cc1ccccc1)C(=O)N[C@H]1CCC(=O)NCCC[C@H](O)[C@H](O)[C@H](CC2CCCCC2)NC1=O`, 0.65 µM; under `CC(C)(C)OC(=O)N[C@@H](Cc1ccccc1)C(=O)N[C@H]1CCC(=O)NCCCC(=O)[C@H](O)[C@H](CC2CCCCC2)NC1=O`, 14 µM.
Under `CC(C)(C)OC(=O)N[C@@H](Cc1ccccc1)C(=O)N[C@H]1CNC(=O)CCCCOC(=O)[C@H](O)[C@H](CC2CCCCC2)NC1=O` stands 0.59 µM.
